# Where “and” joins values, the source holds several entries; their conditions need not be identical. Equal values may be shown once.
# Test: Extrapolated human dosimetry (OLINDA/EXM, ICRP-89 phantoms)
# Set-up: TIAC average pancreas: unit not given beside the values; TIAC average stomach / TIAC average Small Intestine / TIAC average Left Column / TIAC average Rectum / TIAC average adrenal / TIAC average bone / TIAC average Red marrow / TIAC average salivary glands / TIAC average ROB / TIAC average Total Frac IA / TIAC average heart content / TIAC average heart wall / TIAC average liver / TIAC average spleen / TIAC average lung / TIAC average kidney: unit not given here
# Procedure: To address inter-animal variability, the TIACs for each source organ were calculated from both the mean nTACs and the nTACs obtainend from fitting the mean ± 1 standard deviation (SD) of the normalized time-activity data, providing upper and lower bounds.
# The mice-to-human TIAC extrapolation accounted for species-specific differences in relative source organ masses, m(organ), as compared to the total body weight (WB), for the mice (m) and human (h) models respectively.
# (§1) The human organ masses, m(organ)h, were obtained from ICRP-89 adult male and female reference phantoms, while the murine organ masses, m(organ)m, were derived from the standard MOBY mouse model. The extrapolated human TIACs, TIACh were entered in the OLINDA/EXM software to compute the absorbed doses to target organs and the effective dose for adult male, female, and gender-averaged human models. […]
# The TIACs, for [177Lu]Lu-DOTAGA.Glu.(FAPI)2 and [177Lu]Lu-DO3A.Glu.(FAPI)2, were determined by time integration of the nTACs. To account for the inter-animal variability, the TIACs for each source organ were calculated using both the mean nTACs and the nTACs obtainend from fitting the mean ±1 standard deviation (SD) of the normalized time-activity data. This approach provided the upper and the lower bounds for the estimated TIACs.
# The mice-to-human TIAC extrapolation was obtained considering the different (species-specific) relative source organ masses, m(organ), as compared to the total body weight (WB), for the mice (m) and human (h) models respectively.
# as §1, with “the” for “ICRP-89”, “models phantoms defined in ICRP-89,” for “phantoms,”, “TIACs values, TIACh, for each source organ” for “TIACs, TIACh”, “input into the kinetic module of” for “entered in”, “software (version 2.1, HERMES Medical Solutions AB, Stockholm, Sweden)” for “software”
# [1] = ICRP 89 Adult Female, extrapolated
# [2] = ICRP 89 Adult Male, extrapolated
# [3] = human extrapolation, male-female range
compound,measurement,setting,value
N#C[C@@H]1CC(F)(F)CN1C(=O)CNC(=O)c1ccnc2ccc(OCCCCNC(=O)CC[C@H](NC(=O)CN3CCN(CC(=O)[O-])CCN(CC(=O)[O-])CCN(CC(=O)[O-])CC3)C(=O)NCCCCOc3ccc4nccc(C(=O)NCC(=O)N5CC(F)(F)C[C@H]5C#N)c4c3)cc12.[177Lu+3] [[^177Lu]Lu-DO3A.Glu.(FAPI)2],Absorbed dose (AD average) Adrenals,[1],9.96E-03 mGy/Mbq
same,Absorbed dose (AD average) Brain,[1],2.63E-02 mGy/Mbq
same,Absorbed dose (AD average) Breasts,[1],2.57E-02 mGy/Mbq
same,Absorbed dose (AD average) Esophagus,[1],2.66E-02 mGy/Mbq
same,Absorbed dose (AD average) Eyes,[1],2.63E-02 mGy/Mbq
same,Absorbed dose (AD average) Gallbladder Wall,[1],2.80E-02 mGy/Mbq
same,Absorbed dose (AD average) Heart Wall,[1],2.49E-02 mGy/Mbq
same,Absorbed dose (AD average) Kidneys,[1],2.54E-02 ± 0.001 mGy/Mbq and 2.54E-02 mGy/Mbq
same,Absorbed dose (AD average) Left colon,[1],6.93E-02 mGy/Mbq
same,Absorbed dose (AD average) Liver,[1],7.30E-02 ± 0.003 mGy/Mbq and 7.30E-02 mGy/Mbq
same,Absorbed dose (AD average) Lungs,[1],4.16E-02 ± 0.01 mGy/Mbq and 4.16E-02 mGy/Mbq
same,Absorbed dose (AD average) Osteogenic Cells,[1],6.24E-02 ± 0.002 mGy/Mbq and 6.24E-02 mGy/Mbq
same,Absorbed dose (AD average) Ovaries,[1],2.76E-02 mGy/Mbq
same,Absorbed dose (AD average) Pancreas,[1],2.62E-02 ± 0.001 mGy/Mbq and 2.62E-02 mGy/Mbq
same,Absorbed dose (AD average) Rectum,[1],7.09E-02 mGy/Mbq
same,Absorbed dose (AD average) Red Marrow,[1],3.06E-02 ± 0.001 mGy/Mbq and 3.06E-02 mGy/Mbq
same,Absorbed dose (AD average) Right colon,[1],4.88E-02 mGy/Mbq
same,Absorbed dose (AD average) Salivary Glands,[1],8.81E-02 ± 0.01 mGy/Mbq and 8.81E-02 mGy/Mbq
same,Absorbed dose (AD average) Small Intestine,[1],4.29E-02 ± 0.003 mGy/Mbq and 4.29E-02 mGy/Mbq
same,Absorbed dose (AD average) Spleen,[1],6.42E-02 ± 0.003 mGy/Mbq and 6.42E-02 mGy/Mbq
same,Absorbed dose (AD average) Stomach Wall,[1],3.65E-02 mGy/Mbq
same,Absorbed dose (AD average) Thymus,[1],2.70E-02 mGy/Mbq
same,Absorbed dose (AD average) Thyroid,[1],2.64E-02 mGy/Mbq
same,Absorbed dose (AD average) Total Body,[1],3.44E-02 ± 0.002 mGy/Mbq and 3.44E-02 mGy/Mbq
same,Absorbed dose (AD average) Urinary Bladder Wall,[1],2.73E-02 mGy/Mbq
same,Absorbed dose (AD average) Uterus,[1],2.76E-02 mGy/Mbq
same,Effective dose (average),[1],3.49E-02
same,Absorbed dose (AD average) Adrenals,[2],7.77E-03 mGy/Mbq
same,Absorbed dose (AD average) Brain,[2],2.00E-02 mGy/Mbq
same,Absorbed dose (AD average) Esophagus,[2],2.06E-02 mGy/Mbq
same,Absorbed dose (AD average) Eyes,[2],2.00E-02 mGy/Mbq
same,Absorbed dose (AD average) Gallbladder Wall,[2],2.20E-02 mGy/Mbq
same,Absorbed dose (AD average) Heart Wall,[2],2.04E-02 mGy/Mbq
same,Absorbed dose (AD average) Kidneys,[2],2.09E-02 ± 0.001 mGy/Mbq and 2.09E-02 mGy/Mbq
same,Absorbed dose (AD average) Left colon,[2],5.77E-02 mGy/Mbq
same,Absorbed dose (AD average) Liver,[2],6.00E-02 ± 0.002 mGy/Mbq and 6.00E-02 mGy/Mbq
same,Absorbed dose (AD average) Lungs,[2],3.40E-02 ± 0.01 mGy/Mbq and 3.40E-02 mGy/Mbq
same,Absorbed dose (AD average) Osteogenic Cells,[2],6.64E-02 ± 0.002 mGy/Mbq and 6.64E-02 mGy/Mbq
same,Absorbed dose (AD average) Pancreas,[2],2.12E-02 ± 0.001 mGy/Mbq and 2.12E-02 mGy/Mbq
same,Absorbed dose (AD average) Prostate,[2],2.07E-02 mGy/Mbq
same,Absorbed dose (AD average) Rectum,[2],5.76E-02 mGy/Mbq
same,Absorbed dose (AD average) Red Marrow,[2],2.43E-02 ± 0.001 mGy/Mbq and 2.43E-02 mGy/Mbq
same,Absorbed dose (AD average) Right colon,[2],3.94E-02 mGy/Mbq
same,Absorbed dose (AD average) Salivary Glands,[2],7.27E-02 ± 0.01 mGy/Mbq and 7.27E-02 mGy/Mbq
same,Absorbed dose (AD average) Small Intestine,[2],3.27E-02 ± 0.002 mGy/Mbq and 3.27E-02 mGy/Mbq
same,Absorbed dose (AD average) Spleen,[2],5.27E-02 ± 0.002 mGy/Mbq and 5.27E-02 mGy/Mbq
same,Absorbed dose (AD average) Stomach Wall,[2],2.83E-02 mGy/Mbq
same,Absorbed dose (AD average) Testes,[2],2.00E-02 mGy/Mbq
same,Absorbed dose (AD average) Thymus,[2],2.03E-02 mGy/Mbq
same,Absorbed dose (AD average) Thyroid,[2],2.04E-02 mGy/Mbq
same,Absorbed dose (AD average) Total Body,[2],2.71E-02 ± 0.001 mGy/Mbq and 2.71E-02 mGy/Mbq
same,Absorbed dose (AD average) Urinary Bladder Wall,[2],2.07E-02 mGy/Mbq
same,Effective dose (average),"ICRP 89 Adult Male, extrapolated, in mSv/MBq (unit assumed)",2.56E-02
same,absorbed dose kidneys,[3],0.02–0.03 Gy/GBq
same,absorbed dose liver,[3],0.06–0.07 Gy/GBq
same,absorbed dose salivary glands,[3],0.07–0.09 Gy/GBq
same,total body and effective doses,[3],0.027–0.034 Gy/GBq
same,TIAC average Left Column,"human female, extrapolated",0.0781
same,TIAC average ROB,"human female, extrapolated",16.8035
same,TIAC average Rectum,"human female, extrapolated",0.0808
same,TIAC average Red marrow,"human female, extrapolated",0.2208
same,TIAC average Small Intestine,"human female, extrapolated",0.1025
same,TIAC average Total Frac IA,"human female, extrapolated",21.2881
same,TIAC average adrenal,"human female, extrapolated",0.0008
same,TIAC average bone,"human female, extrapolated",2.8185
same,TIAC average heart content,"human female, extrapolated",0.0908
same,TIAC average heart wall,"human female, extrapolated",0.0329
same,TIAC average kidney,"human female, extrapolated",0.0717
same,TIAC average liver,"human female, extrapolated",1.1228
same,TIAC average lung,"human female, extrapolated",0.4313
same,TIAC average pancreas,"human female, extrapolated",0.0313
same,TIAC average salivary glands,"human female, extrapolated",0.0707
same,TIAC average spleen,"human female, extrapolated",0.0929
same,TIAC average stomach,"human female, extrapolated",0.0501
same,TIAC average Left Column,"human male, extrapolated",0.0642
same,TIAC average ROB,"human male, extrapolated",15.5056
same,TIAC average Rectum,"human male, extrapolated",0.0642
same,TIAC average Red marrow,"human male, extrapolated",0.2359
same,TIAC average Small Intestine,"human male, extrapolated",0.0958
same,TIAC average Total Frac IA,"human male, extrapolated",21.2881
same,TIAC average adrenal,"human male, extrapolated",0.0007
same,TIAC average bone,"human male, extrapolated",3.1852
same,TIAC average heart content,"human male, extrapolated",0.1028
same,TIAC average heart wall,"human male, extrapolated",0.0357
same,TIAC average kidney,"human male, extrapolated",0.0664
same,TIAC average liver,"human male, extrapolated",1.1865
same,TIAC average lung,"human male, extrapolated",0.4477
same,TIAC average pancreas,"human male, extrapolated",0.0300
same,TIAC average salivary glands,"human male, extrapolated",0.0706
same,TIAC average spleen,"human male, extrapolated",0.0881
same,TIAC average stomach,"human male, extrapolated",0.0446
